Toxic doses and inconclusive results are not listed. The calls were made as follows: active = survival T/C of 150% or more; inactive = T/C below 125% in these data.
Test system: BDF1 mice, L1210 6-MP/6-TG resistant leukemia ip, survival T/C
Test: NCI In Vivo Anticancer Drug Screen. Data for tumor model L1210 Leukemia resistant to 6-MP and 6-Thioguanine; NSC 755, NSC 752 (intraperitoneal) in B6D2F1 (BDF1) mice
Conditions: endpoint: mean survival time, higher = longer survival
Protocol: The antitumor activity of compounds was measured in mice bearing transplantable tumors. Survival or tumor size were measured and the results are expressed as the measurement made in the treated group (T) divided by the measurement made in the vehicle treated control group (C). The tumor model used in this assay is L1210 Leukemia resistant to 6-MP and 6-Thioguanine; NSC 755, NSC 752 (intraperitoneal) in B6D2F1 (BDF1) mice

Measured: T/C

CCCCCCCSc1ncnc2c1ncn2CO
inactive: dose: 150.0 mg/kg/injection, schedule: Q01DX009 (ip), vehicle: other 96 % of control | dose: 200.0 mg/kg/injection, schedule: Q01DX009 (ip), vehicle: other 95 % of control | dose: 300.0 mg/kg/injection, schedule: Q01DX009 (ip), vehicle: other 100 % of control | dose: 400.0 mg/kg/injection, schedule: Q01DX009 (ip), vehicle: other 86 % of control

O=c1cn[nH]c(=O)[nH]1
inactive: dose: 125.0 mg/kg/injection, schedule: Q01DX Z (ip), vehicle: carboxymethylcellulose (CMC) 109 % of control | dose: 250.0 mg/kg/injection, schedule: Q01DX Z (ip), vehicle: carboxymethylcellulose (CMC) 115 % of control | dose: 375.0 mg/kg/injection, schedule: Q01DX Z (ip), vehicle: carboxymethylcellulose (CMC) 121 % of control | dose: 500.0 mg/kg/injection, schedule: Q01DX Z (ip), vehicle: carboxymethylcellulose (CMC) 121 % of control

COCCCNS(=O)(=O)c1ncnc2nc[nH]c12
inactive: dose: 25.0 mg/kg/injection, schedule: Q01DX Z (ip), vehicle: carboxymethylcellulose (CMC) 92 % of control | dose: 100.0 mg/kg/injection, schedule: Q01DX Z (ip), vehicle: carboxymethylcellulose (CMC) 90 % of control

— PubChem BioAssay AID308 (DTP/NCI, 2004)
